Experimental data from patent publication US10197581B2, “Vitamin D assays” (Enzo Life Sciences, Inc., priority 2013, dated 2019).
Where a name gives a salt, the structure may show the parent alone. Read-outs that look alike come from different tables or passages of the source.

Tests used:
[1] = target: T1, vitamin D binding protein (DBP) (Homo sapiens, UniProt P02774); experiment: Screening of dissociation buffer components (release reagents) in the 25OHD ELISA; type: biochemical; details: for release of 25OHD from DBP and maintaining 25OHD availability for antibody binding / tolerance in the assay: component of dissociation buffer; for effect towards dissociation of 25OHD from DBP: earlier experiments
T1 sequence (P02774 17-474): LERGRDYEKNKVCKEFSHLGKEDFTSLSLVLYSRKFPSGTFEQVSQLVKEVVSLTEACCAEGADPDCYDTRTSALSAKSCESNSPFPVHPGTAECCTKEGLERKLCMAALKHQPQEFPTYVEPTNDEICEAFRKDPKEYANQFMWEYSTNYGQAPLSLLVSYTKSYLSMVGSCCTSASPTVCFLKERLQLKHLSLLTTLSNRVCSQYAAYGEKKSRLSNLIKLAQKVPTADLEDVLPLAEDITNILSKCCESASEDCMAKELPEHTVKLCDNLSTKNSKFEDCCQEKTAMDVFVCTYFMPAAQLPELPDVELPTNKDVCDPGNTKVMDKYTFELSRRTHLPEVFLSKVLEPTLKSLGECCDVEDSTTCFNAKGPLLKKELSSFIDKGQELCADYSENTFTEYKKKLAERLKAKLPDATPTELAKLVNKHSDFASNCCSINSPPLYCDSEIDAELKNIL
Procedure: In order to optimize the ELISA 25OHD assay, components of the dissociation buffer, the assay buffer and the wash buffer, and conditions for performing various steps in the protocol were tested in the assay. Various reagents were tested alone or in combination for their effects on dissociation of 25OHD from DBP.
In addition, various types and concentrations of buffer salts (e.g., Tris, MES, citrate) were used in the dissociation buffers, assay buffers and wash buffers. Dissociation and wash buffers having a pH from 4-8 were tested. Dissocation was performed at different temperatures (RT, 37° C., 65° C.) and in different incubation vessels (polypropylene or polystyrene) and the competitive ELISA was performed using various different 25OHD conjugates.

[2] = test system: sheep monoclonal anti-25OHD antibody (Bioventix); experiment: Cross-reactivity of vitamin D metabolites in the optimized 25OHD competitive ELISA; type: binding; details: for % cross-reactivity: determined at the OD corresponding to the ED50 of 25OHD3; for ED50: optimized 25OHD ELISA, metabolite serially diluted in Tris buffer
Procedure: Ten vitamin D metabolites were tested for cross-reactivity in the optimized 25OHD ELISA assay described above. New concentrated stock solutions were prepared from dry chemicals for all metabolites. For cross-reactivity testing, each metabolite was prepared and serially diluted in a Tris buffer. Metabolites and the concentration ranges tested are in Table 3. The metabolite solutions were used as samples and mixed with dissociation buffer and the assay carried out as previously described.

[3] = type: physicochemical
[4] = target: T1, vitamin D binding protein (DBP); experiment: Release of bound 25OHD3 from DBP in serum samples at varied release reagent concentrations (ELISA); type: biochemical; set-up: human serum containing 20 or 40 ng/mL 25OHD3 were treated with the various dissociation buffers; from tissue; host or cells: human serum; details: major release reagents in combination
[5] = target: T1, vitamin D binding protein (DBP); experiment: as above; type: biochemical; set-up: from tissue; host or cells: human serum; details: for percent inhibition by released 25OHD: vs controls with no 25OHD
Procedure: Each buffer was diluted to provide dissociation buffers with multiple concentrations of a single release reagent.

Compound	release of 25OHD from DBP and maintaining 25OHD availability for antibody binding [1]	% cross-reactivity [2] [%]	ED50 [2] [µg/mL]	further results
O=C(O)CN(CCN(CC(=O)O)CC(=O)O)CC(=O)O [EDTA]	did not aid in dissociating 25OHD from DBP	–	–	–
CC#N [Acetonitrile, acetonitrile]	ineffective release reagents at concentrations that were tolerable in the assay	–	–	–
CCCCC/C=C\C/C=C\C/C=C\C/C=C\CCCC(=O)O [Arachidonic acid, arachidonic acid]	did not aid in dissociating 25OHD from DBP	–	–	–
C=C1CCC(O)C/C1=C\C=C1\CCCC2(C)C1CCC2C(C)CCC(O)C(C)(C)O (centres unmarked) [24,25(OH)2VitaminD3]	–	1.25	0.14	detection by the anti-25OHD antibody ([2]; 25OHD assay): neither the parent vitamin compounds nor the 24,25(OH)2VitaminD3 metabolite was detected to any appreciable degree
CO [methanol]	ineffective release reagents at concentrations that were tolerable in the assay	–	–	–
CCO [ethanol]	ineffective release reagents at concentrations that were tolerable in the assay	–	–	–
C=C1CC[C@H](O)C/C1=C/C=C1\CCC[C@]2(C)[C@@H]([C@H](C)CCCC(C)(C)O)CC[C@@H]12 [25(OH)VitaminD3]	–	100	0.00175	–
C=C1CC[C@H](O)C/C1=C/C=C1\CCC[C@]2(C)[C@@H]([C@H](C)CCCC(C)C)CC[C@@H]12 [Vitamin D3]	–	0.01	23.5	–
O=C(O)CCP(CCC(=O)O)CCC(=O)O [TCEP]	did not aid in dissociating 25OHD from DBP	–	–	–
CCCCCCCCCCCCCC[N+](C)(C)CCCS(=O)(=O)[O-] [Zwittergent 3-14]	–	–	–	tolerance in the assay [1]: not tolerated in the assay
Triton X-100	–	–	–	tolerance in the assay [1]: not tolerated in the assay
O[C@@H](CS)[C@@H](O)CS [DTT]	did not aid in dissociating 25OHD from DBP	–	–	–
1-butyl-3-methylimidazolium octylsulfate	effective and generally compatible with the assay	–	–	–
CCCC[n+]1ccc(C)cc1.F[B-](F)(F)F	effective and generally compatible with the assay	–	–	time after manufacture until dissociation buffer became unreliable [3]: ≤ 7 days; pH of the dissociation buffer ([3]; after 1.5 days): 4.7; pH of the dissociation buffer ([3]; after 4 days): 4.07; pH of the dissociation buffer ([3]; after 7 day): 3.46; pH of the dissociation buffer ([3]; after 8 days): 2.79; pH of the dissociation buffer ([3]; after 9 days): 2.43; pH of the dissociation buffer ([3]; freshly made): 5.2
O=C([O-])c1ccccc1O.[Na+] [sodium salicylate]	effective and generally compatible with the assay	–	–	preventing 25OHD re-uptake by DBP or binding to other cellular proteins/lipids [1]: appeared to be effective; effect towards dissociation of 25OHD from DBP [1]: did not show a large effect
N=C(N)N [guanidine HCl]	did not aid in dissociating 25OHD from DBP	–	–	–

Compound	release of 25OHD from DBP and maintaining 25OHD availability for antibody binding [1]	% cross-reactivity [2] [%]	ED50 [2] [µg/mL]	further results
CC(C)O [2-isopropanol]	ineffective release reagents at concentrations that were tolerable in the assay	–	–	–
C=C1CC[C@@H](O)C/C1=C/C=C1\CCC[C@]2(C)[C@@H]([C@H](C)CCCC(C)(C)O)CC[C@@H]12 [3-epi-25(OH)VitaminD3]	–	50.87	0.00344	% cross-reactivity ([2]; listed as 3-epimer of 25(OH)VitaminD3): 51%
methyl β-cyclodextrin	effective and generally compatible with the assay	–	–	preventing 25OHD re-uptake by DBP or binding to other cellular proteins/lipids [1]: appeared to be effective; effect towards dissociation of 25OHD from DBP [1]: did not show a large effect
C=C1/C(=C\C=C2/CCC[C@]3(C)[C@@H]([C@H](C)CCCC(C)(C)O)CC[C@@H]23)C[C@@H](O)C[C@@H]1O [1,25(OH)2VitaminD3]	–	27.9	0.00627	% cross-reactivity ([2]; listed as 1,25(OH)2D3): 28%
C=C1/C(=C\C=C2/CCC[C@]3(C)[C@@H]([C@H](C)/C=C/[C@H](C)C(C)C)CC[C@@H]23)C[C@@H](O)C[C@@H]1O [1α(OH)VitaminD2]	–	<0.01	1.43	–
NP-40	–	–	–	tolerance in the assay [1]: not tolerated in the assay
C=C1/C(=C\C=C2/CCC[C@]3(C)[C@@H]([C@H](C)/C=C/[C@H](C)C(C)(C)O)CC[C@@H]23)C[C@@H](O)C[C@@H]1O [1,25(OH)2VitaminD2]	–	94.1	0.00186	% cross-reactivity ([2]; listed as 1,25(OH)2D2): 94%
casein	–	–	–	effect on absorbance signal and dynamic signal range ([1]; protein at or above 0.5% in the assay): negatively impacted absorbance signal and dynamic signal range
C=C1CC[C@H](O)C/C1=C/C=C1\CCC[C@]2(C)[C@@H]([C@H](C)/C=C/[C@H](C)C(C)C)CC[C@@H]12 [Vitamin D2]	–	0.11	1.643	–
CCCCn1cc[n+](C)c1.F[B-](F)(F)F [1-butyl-3-methylimidazolium tetrafluoroborate]	effective and generally compatible with the assay	–	–	–
C=C1CC[C@H](O)C/C1=C/C=C1\CCC[C@]2(C)[C@@H]([C@H](C)/C=C/[C@H](C)C(C)(C)O)CC[C@@H]12 [25(OH)VitaminD2]	–	87.94	0.00199	% cross-reactivity ([2]; listed as 25OHD2): 88%
C[C@H](CCC(=O)NCCC[N+](C)(C)CCCS(=O)(=O)[O-])[C@H]1CC[C@H]2[C@@H]3[C@H](O)C[C@@H]4C[C@H](O)CC[C@]4(C)[C@H]3C[C@H](O)[C@]12C [CHAPS]	did not aid in dissociating 25OHD from DBP	–	–	–
CCCCCCCCCCCCOS(=O)(=O)[O-].[Na+] [SDS, sodium dodecyl sulfate]	did not aid in dissociating 25OHD from DBP	–	–	–
C=C1/C(=C\C=C2/CCC[C@]3(C)[C@@H]([C@H](C)CCCC(C)C)CC[C@@H]23)C[C@@H](O)C[C@@H]1O [1α(OH)VitaminD3]	–	0.04	4.03	–
CCCCCCCCCCCC(=O)OCCOCCOCCOCCOCCOCCOCCOCCOCCOCCOCCOCCOCCOCCOCCOCCOCCOCCOCCOCCOCC(OCCOCCOCCOCCOCCOCCOCCOCCOCCOCCOCCOCCOCCOCCOCCOCCOCCOCCOCCOCCO)C1OCC(OCCOCCOCCOCCOCCOCCOCCOCCOCCOCCOCCOCCOCCOCCOCCOCCOCCOCCOCCOCCO)C1OCCOCCOCCOCCOCCOCCOCCOCCOCCOCCOCCOCCOCCOCCOCCOCCOCCOCCOCCOCCO (centres unmarked) [Tween-20, Polysorbate 20]	did not aid in dissociating 25OHD from DBP	–	–	–
CCCC[n+]1ccc(C)cc1.[Cl-]	effective and generally compatible with the assay	–	–	optimal concentration for dissociation buffer formulation [4]: about 10%; percent inhibition by released 25OHD ([5]; 20 ng/mL 25OHD3 serum sample, high end of 6-14% reagent range): 25%; percent inhibition by released 25OHD ([5]; 20 ng/mL 25OHD3 serum sample, low end of 6-14% reagent range): 12%; percent inhibition by released 25OHD ([5]; 40 ng/mL 25OHD3 serum sample, high end of 6-14% reagent range): 34%; percent inhibition by released 25OHD ([5]; 40 ng/mL 25OHD3 serum sample, low end of 6-14% reagent range): 16%; best percentage of individual release reagent (greatest gains in 25OHD release) ([5]; single release reagent in dissociation buffer): 14%; stability of dissociation buffer [3]: stable and could be stored at room temperature for weeks with no change in efficacy in the assay
